Consider one compound from ChEMBL document CHEMBL1128039, “Acyl CoA:cholesterol acyltransferase (ACAT) inhibitors: ureas bearing two heterocyclic head groups” (Bioorg Med Chem Lett, 1995).

This assay has as its system Cricetinae gen. sp. In words: In vivo activity, with an ED50 inlowering cholesterol levels in the cholesterol-fed hamster. The assay is classed as functional, Cricetulus griseus.

Molecules are shown by their SMILES.

`CCCCCCCN(CCCCCSc1nc(-c2ccccc2)c(-c2ccccc2)[nH]1)C(=O)Nc1ccc(F)cc1F` [LECIMIBIDE] yielded an ED50 of 3 mg/kg.

By ED50 is commonly meant the dose at which the effect has come halfway, by size or by number of responders.
